Experimental data from PubChem BioAssay AID248 (DTP/NCI, 2004).
Where “and” joins values, the source holds several entries; their conditions need not be identical. Equal entries are not always repeated. Toxic doses and inconclusive results are not listed. Cut-off read from the data, not from the text of the source: active = T/C of 150% or more; inactive = T/C below 125%.

Tested on: L1210 leukemia ip in BDF1 mice, survival T/C
Test: NCI In Vivo Anticancer Drug Screen. Data for tumor model L1210 Leukemia (intraperitoneal) in B6D2F1 (BDF1) mice
Conditions: endpoint: mean survival time, higher = longer survival
In short: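 Ratio derived from survival: compound-dosed mice over vehicle-dosed mice, all bearing a transplantable tumor.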

[1] = dose: 200.0 mg/kg/injection, schedule: Q04DX003 (ip), vehicle: saline with Tween-80
[2] = dose: 25.0 mg/kg/injection, schedule: Q04DX002 (ip), vehicle: saline with Tween-80
[3] = dose: 50.0 mg/kg/injection, schedule: Q04DX002 (ip), vehicle: saline with Tween-80

Measured: T/C

OCC1OC(Nc2ncnc3c2ncn3C2OC(CO)C(O)C2O)C(O)C1O (configuration not stated)
inactive: dose: 12.5 mg/kg/injection, schedule: Q01DX005 (ip), vehicle: saline 96 % of control | dose: 12.5 mg/kg/injection, schedule: Q01DX009 (ip), vehicle: saline 100 % of control | dose: 25.0 mg/kg/injection, schedule: Q01DX005 (ip), vehicle: saline 104 % of control | dose: 25.0 mg/kg/injection, schedule: Q01DX009 (ip), vehicle: saline 103 % of control | dose: 50.0 mg/kg/injection, schedule: Q01DX005 (ip), vehicle: saline 117 % of control

O=C(Nc1ccccc1C(F)(F)F)c1ccc(C(=O)Nc2ccccc2C(F)(F)F)cc1
inactive: dose: 100.0 mg/kg/injection, schedule: Q01DX009 (ip), vehicle: saline with Tween-80 90 % of control | dose: 100.0 mg/kg/injection, schedule: Q04DX003 (ip), vehicle: saline with Tween-80 90 % of control | dose: 200.0 mg/kg/injection, schedule: Q01DX009 (ip), vehicle: saline with Tween-80 87 % of control | [1] 90 % of control | dose: 400.0 mg/kg/injection, schedule: Q01DX009 (ip), vehicle: saline with Tween-80 100 % of control | dose: 400.0 mg/kg/injection, schedule: Q04DX003 (ip), vehicle: saline with Tween-80 91 % of control

C1CNCCNCCCNCCNC1
inactive: dose: 12.5 mg/kg/injection, schedule: Q04DX002 (ip), vehicle: saline with Tween-80 93 % of control | [2] 101 % of control | [3] 90 % of control

CN1CC(C(=O)NO)C=C2c3cccc4[nH]cc(c34)CC21 (configuration not stated)
inactive: dose: 50.0 mg/kg/injection, schedule: Q04DX003 (ip), vehicle: alcohol 104 % of control | dose: 100.0 mg/kg/injection, schedule: Q04DX003 (ip), vehicle: alcohol 101 % of control | dose: 200.0 mg/kg/injection, schedule: Q04DX003 (ip), vehicle: alcohol 103 % of control

Clc1cc[c]([Sn]([Cl])([c]2ccc(Cl)cc2)[c]2ccc(Cl)cc2)cc1
inactive: dose: 1.56 mg/kg/injection, schedule: Q01DX009 (ip), vehicle: saline 98 % of control | dose: 3.12 mg/kg/injection, schedule: Q01DX009 (ip), vehicle: saline 106 % of control

COC(=O)C#CCCC#CC(C)=O
inactive: dose: 18.0 mg/kg/injection, schedule: Q04DX002 (ip), vehicle: gum acacia 96 % of control | dose: 37.0 mg/kg/injection, schedule: Q04DX002 (ip), vehicle: gum acacia 107 % of control | dose: 75.0 mg/kg/injection, schedule: Q04DX002 (ip), vehicle: gum acacia 102 % of control and 104 % of control

CCN(CC)CC(=O)NCC(CCN(C)C)(c1cccc2ccccc12)C(C)C (configuration not stated)
inactive: dose: 100.0 mg/kg/injection, schedule: Q04DX003 (ip), vehicle: saline 102 % of control | dose: 200.0 mg/kg/injection, schedule: Q04DX003 (ip), vehicle: saline 93 % of control

CCCCOC1NC(=O)NC(=O)C1=[N+]=[N-] (configuration not stated)
inactive: dose: 50.0 mg/kg/injection, schedule: Q04DX003 (ip), vehicle: saline with Tween-80 98 % of control | [1] 102 % of control

CCOC(=O)C1CCc2c(ccc3ccccc23)N1CCC#N (configuration not stated)
inactive: dose: 100.0 mg/kg/injection, schedule: Q01DX009 (ip), vehicle: carboxymethylcellulose (CMC) 95 % of control and 101 % of control | dose: 100.0 mg/kg/injection, schedule: Q04DX002 (ip), vehicle: carboxymethylcellulose (CMC) 97 % of control | dose: 100.0 mg/kg/injection, schedule: Q04DX003 (ip), vehicle: carboxymethylcellulose (CMC) 105 % of control | dose: 200.0 mg/kg/injection, schedule: Q01DX009 (ip), vehicle: carboxymethylcellulose (CMC) 98 % of control and 88 % of control | dose: 200.0 mg/kg/injection, schedule: Q04DX002 (ip), vehicle: carboxymethylcellulose (CMC) 91 % of control | dose: 200.0 mg/kg/injection, schedule: Q04DX003 (ip), vehicle: carboxymethylcellulose (CMC) 101 % of control | dose: 400.0 mg/kg/injection, schedule: Q01DX009 (ip), vehicle: carboxymethylcellulose (CMC) 97 % of control and 107 % of control | dose: 400.0 mg/kg/injection, schedule: Q04DX002 (ip), vehicle: carboxymethylcellulose (CMC) 97 % of control | dose: 400.0 mg/kg/injection, schedule: Q04DX003 (ip), vehicle: carboxymethylcellulose (CMC) 110 % of control

O=C1C=CC(c2ccccc2)(c2ccccc2)C=C1
inactive: [2] 93 % of control | [3] 101 % of control | dose: 100.0 mg/kg/injection, schedule: Q04DX002 (ip), vehicle: saline with Tween-80 96 % of control

COc1ccccc1N(C(C)=O)C1=C(Cl)C(=O)c2ccccc2C1=O
inactive: dose: 10.0 mg/kg/injection, schedule: Q01DX001 (ip), vehicle: saline 97 % of control | dose: 20.0 mg/kg/injection, schedule: Q01DX001 (ip), vehicle: saline 97 % of control

CCOC(=O)C(CCN1CCCCC1)c1cccc2ccccc12 (configuration not stated)
inactive: dose: 100.0 mg/kg/injection, schedule: Q04DX003 (ip), vehicle: Klucel (hydroxypropylcellulose) (HPC) 100 % of control | dose: 200.0 mg/kg/injection, schedule: Q04DX003 (ip), vehicle: Klucel (hydroxypropylcellulose) (HPC) 88 % of control
